Reference: the supplement of paper PMC11451515

System: P12-Ichikawa
Assay: cell viability relative to DMSO control; higher = less cytotoxic
Settings: 48 h
Outline: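 Library compounds in DMSO were pin-dosed in an 11-point threefold series (47 μM to 0.79 nM) onto leukemia cells in 1536-well plates (5 μl). Plates held 500 cells/well of NOMO1 or SEM or 1000 cells/well of P12-Ichikawa, each adapted for at least four passages in each medium. Luminescence was read with CellTiter-Glo One after 48 h at 37°C. Viability means the per-plate percentage relative to DMSO wells, using cell-free wells as background.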

[1] = HPLM + 10% dialyzed FBS, 0.000781 µM
[2] = HPLM + 10% dialyzed FBS, 0.00234 µM
[3] = HPLM + 10% dialyzed FBS, 0.00702 µM
[4] = HPLM + 10% dialyzed FBS, 0.0211 µM
[5] = HPLM + 10% dialyzed FBS, 0.0632 µM
[6] = HPLM + 10% dialyzed FBS, 0.19 µM
[7] = HPLM + 10% dialyzed FBS, 0.569 µM
[8] = HPLM + 10% dialyzed FBS, 1.71 µM
[9] = HPLM + 10% dialyzed FBS, 5.12 µM
[10] = HPLM + 10% dialyzed FBS, 15.4 µM
[11] = HPLM + 10% dialyzed FBS, 46.1 µM
[12] = RPMI 5 mM glucose + 10% FBS, 0.000781 µM
[13] = RPMI 5 mM glucose + 10% FBS, 0.00234 µM
[14] = RPMI 5 mM glucose + 10% FBS, 0.00702 µM
[15] = RPMI 5 mM glucose + 10% FBS, 0.0211 µM
[16] = RPMI 5 mM glucose + 10% FBS, 0.0632 µM
[17] = RPMI 5 mM glucose + 10% FBS, 0.19 µM
[18] = RPMI 5 mM glucose + 10% FBS, 0.569 µM
[19] = RPMI 5 mM glucose + 10% FBS, 1.71 µM
[20] = RPMI 5 mM glucose + 10% FBS, 5.12 µM
[21] = RPMI 5 mM glucose + 10% FBS, 15.4 µM
[22] = RPMI 5 mM glucose + 10% FBS, 46.1 µM
[23] = RPMI 5 mM glucose + 10% dialyzed FBS, 0.000781 µM
[24] = RPMI 5 mM glucose + 10% dialyzed FBS, 0.00234 µM
[25] = RPMI 5 mM glucose + 10% dialyzed FBS, 0.00702 µM
[26] = RPMI 5 mM glucose + 10% dialyzed FBS, 0.0211 µM
[27] = RPMI 5 mM glucose + 10% dialyzed FBS, 0.0632 µM
[28] = RPMI 5 mM glucose + 10% dialyzed FBS, 0.19 µM
[29] = RPMI 5 mM glucose + 10% dialyzed FBS, 0.569 µM
[30] = RPMI 5 mM glucose + 10% dialyzed FBS, 1.71 µM
[31] = RPMI 5 mM glucose + 10% dialyzed FBS, 5.12 µM
[32] = RPMI 5 mM glucose + 10% dialyzed FBS, 15.4 µM
[33] = RPMI 5 mM glucose + 10% dialyzed FBS, 46.1 µM

CCc1ccc(CCOc2ccc(CC3SC(=O)NC3=O)cc2)nc1 (stereo not given)
cell viability [1]: 121% | cell viability [2]: 118% | cell viability [3]: 123% | cell viability [4]: 117% | cell viability [5]: 116% | cell viability [6]: 113% | cell viability [7]: 113% | cell viability [8]: 113% | cell viability [9]: 108% | cell viability [10]: 108% | cell viability [11]: 108% | cell viability [12]: 118% | cell viability [13]: 112% | cell viability [14]: 118% | cell viability [15]: 115% | cell viability [16]: 117% | cell viability [17]: 112% | cell viability [18]: 127% | cell viability [19]: 119% | cell viability [20]: 109% | cell viability [21]: 118% | cell viability [22]: 119% | cell viability [23]: 123% | cell viability [24]: 118% | cell viability [25]: 129% | cell viability [26]: 120% | cell viability [27]: 126% | cell viability [28]: 116% | cell viability [29]: 114% | cell viability [30]: 121% | cell viability [31]: 120% | cell viability [32]: 111% | cell viability [33]: 100%

CNCCCC12CCC(c3ccccc31)c1ccccc12
cell viability [1]: 93.5% | cell viability [2]: 95.7% | cell viability [3]: 96.7% | cell viability [4]: 95.5% | cell viability [5]: 103% | cell viability [6]: 96.2% | cell viability [7]: 95.8% | cell viability [8]: 92.7% | cell viability [9]: 87.8% | cell viability [10]: 85.8% | cell viability [11]: 63.5% | cell viability [12]: 94.1% | cell viability [13]: 99.5% | cell viability [14]: 102% | cell viability [15]: 103% | cell viability [16]: 104% | cell viability [17]: 95.9% | cell viability [18]: 91.8% | cell viability [19]: 90.2% | cell viability [20]: 84.4% | cell viability [21]: 76.6% | cell viability [22]: 62.6% | cell viability [23]: 93% | cell viability [24]: 98.2% | cell viability [25]: 96.6% | cell viability [26]: 101% | cell viability [27]: 98.3% | cell viability [28]: 88.7% | cell viability [29]: 97.7% | cell viability [30]: 85.7% | cell viability [31]: 86.5% | cell viability [32]: 73.1% | cell viability [33]: 54.8%

COc1ccc([C@@H]2CC(=O)c3c(O)cc(O[C@@H]4O[C@H](CO[C@@H]5O[C@@H](C)[C@H](O)[C@@H](O)[C@H]5O)[C@@H](O)[C@H](O)[C@H]4O)cc3O2)cc1O
cell viability [1]: 107% | cell viability [2]: 109% | cell viability [3]: 106% | cell viability [4]: 114% | cell viability [5]: 120% | cell viability [6]: 124% | cell viability [7]: 121% | cell viability [8]: 118% | cell viability [9]: 115% | cell viability [10]: 114% | cell viability [11]: 116% | cell viability [12]: 94.2% | cell viability [13]: 104% | cell viability [14]: 109% | cell viability [15]: 93.7% | cell viability [16]: 107% | cell viability [17]: 115% | cell viability [18]: 111% | cell viability [19]: 119% | cell viability [20]: 110% | cell viability [21]: 105% | cell viability [22]: 103% | cell viability [23]: 97.3% | cell viability [24]: 117% | cell viability [25]: 114% | cell viability [26]: 111% | cell viability [27]: 123% | cell viability [28]: 116% | cell viability [29]: 126% | cell viability [30]: 119% | cell viability [31]: 122% | cell viability [32]: 111% | cell viability [33]: 114%

COCC1(CO)C(=O)C2CCN1CC2 (stereo not given)
cell viability [1]: 90.6% | cell viability [2]: 103% | cell viability [3]: 105% | cell viability [4]: 112% | cell viability [5]: 108% | cell viability [6]: 109% | cell viability [7]: 85.3% | cell viability [8]: 103% | cell viability [9]: 81.9% | cell viability [10]: 37.7% | cell viability [11]: 4.42% | cell viability [12]: 92.7% | cell viability [13]: 109% | cell viability [14]: 109% | cell viability [15]: 110% | cell viability [16]: 106% | cell viability [17]: 117% | cell viability [18]: 95.2% | cell viability [19]: 104% | cell viability [20]: 77.8% | cell viability [21]: 53.6% | cell viability [22]: 6.98% | cell viability [23]: 103% | cell viability [24]: 104% | cell viability [25]: 109% | cell viability [26]: 115% | cell viability [27]: 107% | cell viability [28]: 112% | cell viability [29]: 96.4% | cell viability [30]: 101% | cell viability [31]: 81.8% | cell viability [32]: 64.2% | cell viability [33]: 23%

CN[C@@H]1[C@@H](O)[C@@H](O[C@@H]2[C@@H](O)[C@H](O[C@H]3O[C@H](CN)[C@@H](O)[C@H](O)[C@H]3O)[C@@H](N)C[C@H]2NC(=O)[C@@H](O)CN)OC[C@]1(C)O
cell viability [1]: 123% | cell viability [2]: 131% | cell viability [3]: 124% | cell viability [4]: 122% | cell viability [5]: 128% | cell viability [6]: 120% | cell viability [7]: 126% | cell viability [8]: 113% | cell viability [9]: 110% | cell viability [10]: 108% | cell viability [11]: 108%

COc1cc(F)c(F)c(Nc2ccc(I)cc2F)c1N[S+](=O)([O-])C1(C[C@H](O)CO)CC1
cell viability [1]: 114% | cell viability [2]: 107% | cell viability [3]: 110% | cell viability [4]: 116% | cell viability [5]: 111% | cell viability [6]: 112% | cell viability [7]: 110% | cell viability [8]: 108% | cell viability [9]: 106% | cell viability [10]: 89% | cell viability [11]: 42.7% | cell viability [12]: 110% | cell viability [13]: 123% | cell viability [14]: 128% | cell viability [15]: 113% | cell viability [16]: 112% | cell viability [17]: 104% | cell viability [18]: 115% | cell viability [19]: 118% | cell viability [20]: 115% | cell viability [21]: 96.4% | cell viability [22]: 74.8% | cell viability [23]: 123% | cell viability [24]: 120% | cell viability [25]: 126% | cell viability [26]: 118% | cell viability [27]: 116% | cell viability [28]: 104% | cell viability [29]: 118% | cell viability [30]: 122% | cell viability [31]: 123% | cell viability [32]: 97.3% | cell viability [33]: 58.2%

CC(C)(C)OC(=O)N[C@H]1CCCCC/C=C\[C@@H]2C[C@@]2(C(=O)N[S+](=O)([O-])C2CC2)NC(=O)[C@@H]2C[C@@H](OC(=O)N3Cc4cccc(F)c4C3)CN2C1=O
cell viability [1]: 108% | cell viability [2]: 114% | cell viability [3]: 108% | cell viability [4]: 109% | cell viability [5]: 112% | cell viability [6]: 114% | cell viability [7]: 115% | cell viability [8]: 111% | cell viability [9]: 108% | cell viability [10]: 104% | cell viability [11]: 87.1% | cell viability [12]: 110% | cell viability [13]: 108% | cell viability [14]: 110% | cell viability [15]: 108% | cell viability [16]: 114% | cell viability [17]: 112% | cell viability [18]: 125% | cell viability [19]: 114% | cell viability [20]: 113% | cell viability [21]: 104% | cell viability [22]: 82.1% | cell viability [23]: 95.2% | cell viability [24]: 104% | cell viability [25]: 117% | cell viability [26]: 94.3% | cell viability [27]: 105% | cell viability [28]: 104% | cell viability [29]: 112% | cell viability [30]: 106% | cell viability [31]: 94.2% | cell viability [32]: 89.3% | cell viability [33]: 80.5%

COc1ccc([S+](=O)([O-])N(C(C)=O)c2ccccc2/C=C/c2cc[n+]([O-])cc2)cc1
cell viability [1]: 119% | cell viability [2]: 125% | cell viability [3]: 118% | cell viability [4]: 121% | cell viability [5]: 125% | cell viability [6]: 118% | cell viability [7]: 116% | cell viability [8]: 64.9% | cell viability [9]: 24.5% | cell viability [10]: 25.1% | cell viability [11]: 10.5%
